Experiment: mn = molality of the nth substance listed, in mol/kg
Conditions: 298.15 K, 99.7 kPa, Liquid; for viscosity: Falling or rolling sphere viscometry; for mass density: Vibrating tube method

CCCCn1cc[n+](C)c1.[Br-] [1-butyl-3-methylimidazolium bromide] + O
Conditions | mass density [kg/m3] | viscosity [mPa·s]
m1 = 0.15 | 1004.39 | 0.922
m1 = 0.3 | 1011.43 | 0.974
m1 = 0.45 | 1018.2 | 1.028
m1 = 0.6 | 1024.73 | 1.084
m1 = 0.7 | 1028.96 | 1.121
m1 = 0.8 | 1033.08 | 1.164

CCn1cc[n+](C)c1.[Br-] [1-ethyl-3-methylimidazolium bromide] + O
Conditions | mass density [kg/m3] | viscosity [mPa·s]
m1 = 0.15 | 1004.96 | 0.899
m1 = 0.3 | 1012.56 | 0.93
m1 = 0.45 | 1019.92 | 0.961
m1 = 0.6 | 1027.01 | 0.992
m1 = 0.7 | 1031.63 | 1.013
m1 = 0.8 | 1036.11 | 1.036

NCC(=O)O [2-aminoacetic acid] + O
Conditions | mass density [kg/m3] | viscosity [mPa·s]
m1 = 0.1 | 1000.22 | 0.902
m1 = 0.15 | 1001.78 | 0.908
m1 = 0.2 | 1003.34 | 0.914
m1 = 0.25 | 1004.88 | 0.92
m1 = 0.3 | 1006.42 | 0.927
m1 = 0.35 | 1007.94 | 0.934

CCCCCCn1cc[n+](C)c1.[Br-] [3-hexyl-1-methyl-1H-imidazolium bromide] + O
Conditions | mass density [kg/m3] | viscosity [mPa·s]
m1 = 0.15 | 1003.87 | 0.947
m1 = 0.3 | 1010.37 | 1.018
m1 = 0.45 | 1016.58 | 1.093
m1 = 0.6 | 1022.49 | 1.169
m1 = 0.7 | 1026.26 | 1.221
m1 = 0.8 | 1029.91 | 1.273

O [water] + CCCCCCn1cc[n+](C)c1.[Br-]
Conditions | viscosity [mPa·s]
m2 = 0 | 0.89

O [water] + CCCCn1cc[n+](C)c1.[Br-]
Conditions | viscosity [mPa·s]
m2 = 0 | 0.89

O [water] + CCn1cc[n+](C)c1.[Br-]
Conditions | viscosity [mPa·s]
m2 = 0 | 0.89

O [water] + NCC(=O)O
Conditions | viscosity [mPa·s]
m2 = 0 | 0.89
